Measurements as given in ChEMBL document CHEMBL3784981, “Anti-inflammatory, analgesic and antioxidant activities of novel kyotorphin-nitroxide hybrid molecules” (Bioorg Med Chem Lett, 2016).
Activity calls are given as the source filed them.

Tests used:
[1] = tested on: Mus musculus; assay: Analgesic activity in ICR mouse assessed as pain threshold at 0.1 umol/kg administered through oral gavage after 30 mins by tail flick method; type: functional
[2] = tested on: Mus musculus; assay: Analgesic activity in ICR mouse assessed as pain threshold at 0.1 umol/kg administered through oral gavage after 60 mins by tail flick method; type: functional
[3] = tested on: Mus musculus; assay: Analgesic activity in ICR mouse assessed as pain threshold at 0.1 umol/kg administered through oral gavage after 90 mins by tail flick method; type: functional
[4] = tested on: Mus musculus; assay: Analgesic activity in ICR mouse assessed as pain threshold at 0.1 umol/kg administered through oral gavage after 120 mins by tail flick method; type: functional
[5] = tested on: Mus musculus; assay: Analgesic activity in ICR mouse assessed as pain threshold at 0.1 umol/kg administered through oral gavage after 150 mins by tail flick method; type: functional
[6] = tested on: Mus musculus; assay: Analgesic activity in ICR mouse assessed as pain threshold at 0.1 umol/kg administered through oral gavage after 180 mins by tail flick method; type: functional
[7] = tested on: Mus musculus; assay: Antiinflammatory activity in ICR mouse assessed as inhibition of xylene-induced ear edema at 0.1 umol/kg, po administered 30 mins prior to xylene challenge measured after 2hrs; type: functional; details: for inhibition in vivo at 0.1 µmol/kg: Mus musculus, ICR, Ear, po
[8] = Antioxidant activity in sodium nitroprusside-stimulated rat PC12 cells assessed as NO radical scavenging activity measured as cell survival preincubated with compound for 1 hr followed by addition of sodium nitroprusside for 2 measured after 14 hrs by MTT assay; type: functional, cell-based; details: pc-12
[9] = Antioxidant activity in rat PC12 cells assessed as H2O2 radical scavenging activity measured as cell survival preincubated with compound for 1 hr measured after 14 hrs by MTT assay; type: functional, cell-based; details: pc-12
[10] = Antioxidant activity in H2O2/Fe(II)-stimulated rat PC12 cells assessed as OH radical scavenging activity measured by cell survival preincubated with compound for 1 hr measured after 14 hrs by MTT assay; type: functional, cell-based; details: pc-12
[11] = tested on: HUVEC; assay: Inhibition of simulated ischemia/reperfusion-induced human HUVEC cells death assessed as increase in tubular mitochondria levels at 30 ug/ml after 2 hrs by Hoechst 33342 dye based fluorescence assay (reference value: 11.3 +/- 2.1 %); type: functional; set-up: scale not given: the % may be the effect or the level left
[12] = tested on: Mus musculus; assay: Analgesic activity in ICR mouse assessed as pain threshold at 0.15 umol/kg administered through oral gavage after 30 mins by tail flick method; type: functional
[13] = tested on: Mus musculus; assay: Analgesic activity in ICR mouse assessed as pain threshold at 0.15 umol/kg administered through oral gavage after 60 mins by tail flick method; type: functional
[14] = tested on: Mus musculus; assay: Analgesic activity in ICR mouse assessed as pain threshold at 0.15 umol/kg administered through oral gavage after 90 mins by tail flick method; type: functional
[15] = tested on: Mus musculus; assay: Analgesic activity in ICR mouse assessed as pain threshold at 0.15 umol/kg administered through oral gavage after 120 mins by tail flick method; type: functional
[16] = tested on: Mus musculus; assay: Analgesic activity in ICR mouse assessed as pain threshold at 0.15 umol/kg administered through oral gavage after 150 mins by tail flick method; type: functional
[17] = tested on: Mus musculus; assay: Analgesic activity in ICR mouse assessed as pain threshold at 0.15 umol/kg administered through oral gavage after 180 mins by tail flick method; type: functional
[18] = tested on: Mus musculus; assay: Analgesic activity in ICR mouse assessed as pain threshold at 0.05 umol/kg administered through oral gavage after 30 mins by tail flick method; type: functional
[19] = tested on: Mus musculus; assay: Analgesic activity in ICR mouse assessed as pain threshold at 0.05 umol/kg administered through oral gavage after 60 mins by tail flick method; type: functional
[20] = tested on: Mus musculus; assay: Analgesic activity in ICR mouse assessed as pain threshold at 0.05 umol/kg administered through oral gavage after 90 mins by tail flick method; type: functional
[21] = tested on: Mus musculus; assay: Analgesic activity in ICR mouse assessed as pain threshold at 0.05 umol/kg administered through oral gavage after 120 mins by tail flick method; type: functional
[22] = tested on: Mus musculus; assay: Analgesic activity in ICR mouse assessed as pain threshold at 0.055 umol/kg administered through oral gavage after 150 mins by tail flick method; type: functional
[23] = tested on: Mus musculus; assay: Analgesic activity in ICR mouse assessed as pain threshold at 0.055 umol/kg administered through oral gavage after 180 mins by tail flick method; type: functional
[24] = tested on: Mus musculus; assay: Antiinflammatory activity in ICR mouse assessed as inhibition of xylene-induced ear edema at 0.15 umol/kg, po administered 30 mins prior to xylene challenge measured after 2hrs; type: functional
[25] = tested on: Mus musculus; assay: Antiinflammatory activity in ICR mouse assessed as inhibition of xylene-induced ear edema at 0.05 umol/kg, po administered 30 mins prior to xylene challenge measured after 2hrs; type: functional
[26] = tested on: HUVEC; assay: Inhibition of simulated ischemia/reperfusion-induced ROS production in human HUVEC cells at 30 ug/ml after 2 hrs by Hoechst 33342 dye based fluorescence assay; type: functional, cell-based
[27] = tested on: HUVEC; assay: Inhibition of simulated ischemia/reperfusion-induced cytochrome C release in human HUVEC cells at 30 ug/ml after 2 hrs by fluorescence assay (reference value: 75.3 +/- 5.2 %); type: functional; set-up: scale not given: the % may be the effect or the level left
[28] = tested on: HUVEC; assay: Inhibition of simulated ischemia/reperfusion-induced human HUVEC cells death assessed as decrease in fragmented mitochondria at 30 ug/ml after 2 hrs by Hoechst 33342 dye based fluorescence assay; type: functional, cell-based
[29] = tested on: Mus musculus; assay: Analgesic activity in ICR mouse assessed as pain threshold at 165 umol/kg administered through oral gavage after 30 mins by tail flick method; type: functional
[30] = tested on: Mus musculus; assay: Analgesic activity in ICR mouse assessed as pain threshold at 165 umol/kg administered through oral gavage after 60 mins by tail flick method; type: functional
[31] = tested on: Mus musculus; assay: Analgesic activity in ICR mouse assessed as pain threshold at 165 umol/kg administered through oral gavage after 90 mins by tail flick method; type: functional
[32] = tested on: Mus musculus; assay: Analgesic activity in ICR mouse assessed as pain threshold at 165 umol/kg administered through oral gavage after 120 mins by tail flick method; type: functional
[33] = tested on: Mus musculus; assay: Analgesic activity in ICR mouse assessed as pain threshold at 165 umol/kg administered through oral gavage after 150 mins by tail flick method; type: functional
[34] = tested on: Mus musculus; assay: Analgesic activity in ICR mouse assessed as pain threshold at 165 umol/kg administered through oral gavage after 180 mins by tail flick method; type: functional
[35] = tested on: Mus musculus; assay: Analgesic activity in ICR mouse assessed as pain threshold at 1 umol/kg administered through oral gavage after 30 mins by tail flick method; type: functional
[36] = tested on: Mus musculus; assay: Analgesic activity in ICR mouse assessed as pain threshold at 1 umol/kg administered through oral gavage after 60 mins by tail flick method; type: functional
[37] = tested on: Mus musculus; assay: Analgesic activity in ICR mouse assessed as pain threshold at 1 umol/kg administered through oral gavage after 90 mins by tail flick method; type: functional
[38] = tested on: Mus musculus; assay: Analgesic activity in ICR mouse assessed as pain threshold at 1 umol/kg administered through oral gavage after 120 mins by tail flick method; type: functional
[39] = tested on: Mus musculus; assay: Analgesic activity in ICR mouse assessed as pain threshold at 1 umol/kg administered through oral gavage after 150 mins by tail flick method; type: functional
[40] = tested on: Mus musculus; assay: Analgesic activity in ICR mouse assessed as pain threshold at 1 umol/kg administered through oral gavage after 180 mins by tail flick method; type: functional

SMILES	Activity [1]	Activity [2]	Activity [3]	Activity [4]	Activity [5]	Activity [6]	inhibition (INH) [7]	EC50 [8]	EC50 [9]	EC50 [10]	inhibition in vivo at 0.1 µmol/kg [7]	also measured
CC1(C)N([O])C(c2ccc(OCC(=O)N[C@@H](Cc3ccc(O)cc3)C(=O)N[C@@H](CCCCN)C(=O)O)cc2)=[N+]([O-])C1(C)C	12.56%	19.35%	29.31%	38.33%	33.73%	13.58%	36.94%	8.1 µM	31.3 µM	22.7 µM	–	–
CC1(C)N([O])C(c2ccc(OCC(=O)NCCCNC(=O)[C@H](Cc3ccc(O)cc3)NC(=O)[C@@H](N)CCCNC(=N)N)cc2)=[N+]([O-])C1(C)C	16.3%	29.36%	44.76%	60.32%	51.33%	22.01%	73.47%	8.1 µM	31.3 µM	22.7 µM	–	Activity [11]: 55.7%; Activity [12]: 20.17%; Activity [13]: 33.47%; Activity [14]: 50.35%; Activity [15]: 68.42%; Activity [16]: 52.45%; Activity [17]: 30.34%; Activity [18]: 8.16%; Activity [19]: 12.31%; Activity [20]: 18.37%; Activity [21]: 25.36%; Activity [22]: 19.35%; Activity [23]: 16.28%; inhibition (INH) [24]: 78.58%; inhibition (INH) [25]: 37.33%; Activity [26]: Active; Activity [27]: 27.8%; inhibition [28]: Active
CC(=O)Oc1ccccc1C(=O)O [ASPIRIN]	–	–	–	–	–	–	–	–	–	–	49.9%	Activity [29]: 33.21%; Activity [30]: 66.32%; Activity [31]: 53.2%; Activity [32]: 25.21%; Activity [33]: 15.84%; Activity [34]: 20.56%
CC1(C)N([O])C(c2ccc(OCC(=O)N[C@@H](Cc3ccc(O)cc3)C(=O)N[C@@H](CCCNC(=N)N)C(=O)O)cc2)=[N+]([O-])C1(C)C	12.53%	18.66%	31.45%	40.01%	34.14%	14.45%	40.86%	8.1 µM	31.3 µM	22.7 µM	–	–
CC1(C)N([O])C(c2ccc(OCC(=O)N[C@@H](Cc3ccc(O)c(CO)c3)C(=O)N[C@@H](CCCNC(=N)N)C(=O)O)cc2)=[N+]([O-])C1(C)C	12.12%	19.13%	22.37%	25.78%	33.56%	20.14%	31.23%	8.1 µM	31.3 µM	22.7 µM	–	–
NC(N)=NCCC[C@H](NC(=O)[C@@H](N)Cc1ccc(O)cc1)C(=O)O [KYOTORPHIN]	–	–	–	–	–	–	–	–	–	–	25.9%	Activity [35]: 16.08%; Activity [36]: 22.78%; Activity [37]: 25.35%; Activity [38]: 12.32%; Activity [39]: 12.11%; Activity [40]: 10.55%
